In ChEMBL document CHEMBL1147930, “Selective inhibition of the interaction of C1q with immunoglobulins and the classical pathway of complement activation by steroids and triterpenoids sulfates” (Bioorg Med Chem, 2007) one finds HC50, IC50 and Ki data, which are given here for ten compounds.

By IC50 is commonly meant the concentration that gives 50% inhibition. The term Ki denotes the dissociation constant of the complex between target and ligand, obtained from inhibition or displacement. Low readings indicate higher affinity, high ones lower affinity.

Structures can show the parent of a compound that is named as a salt. Where only a bound is given, the exact number is not on record here.

Data set [1] can be described thus: Toxicity in sheep erythrocytes assessed as intrinsic hemolytic activity. To be noted: read-out: ED50 (the source's name). It is filed as cell-based, Ovis aries, Erythrocyte.
Data set [2] can be described thus: Inhibition of classical pathway of complement activation in sheep erythrocytes in presence of guinea-pig serum. The format is functional, cell-based, Ovis aries. To be noted: erythrocyte.
Data set [3] is described as follows: Inhibition of alternative pathway of complement activation in rabbit erythrocytes in presence of human serum. To be noted: erythrocyte. The format is functional, cell-based, Oryctolagus cuniculus.
Data set [4] can be described thus: Inhibition of classical pathway of complement activation in sheep erythrocytes in presence of human serum. It is filed as functional, cell-based, Ovis aries. To be noted: erythrocyte.
Data set [5] is described as follows: Inhibition of C1q immunoglobulin interaction by hemolytic method. On the set-up: species or system Homo sapiens.
The nature of data set [6]: Inhibition of C1q immunoglobulin interaction by ELISA. On the set-up: species or system Homo sapiens.

With `C[C@]12CC[C@H]3[C@@H](CC=C4C[C@@H](OS(=O)(=O)O)CC[C@@]43C)[C@@H]1CC[C@@H]2C(=O)O`, the HC50 in data set [1] was > 1600 µM. Moreover, the IC50 in data set [2] came out at 410 µM.
For `C[C@H](CCC(=O)O)[C@H]1CC[C@H]2[C@@H]3CC=C4C[C@@H](OS(=O)(=O)O)CC[C@]4(C)[C@H]3CC[C@]12C` the same measures were > 400 µM and 23.7 µM.
For `CC1(C)[C@@H](OS(=O)(=O)O)CC[C@]2(C)[C@H]3CC[C@@H]4[C@H]5[C@H](C6(C)CC6(Cl)Cl)CC[C@]5(COS(=O)(=O)O)CC[C@@]4(C)[C@]3(C)CC[C@@H]12` (some centres not stated) the same measures were 85 µM and 6.8 µM.
Consider `C=C(C)[C@@H]1CC[C@]2(COP(=O)(O)O)CC[C@]3(C)[C@H](CC[C@@H]4[C@@]5(C)CC[C@H](OP(=O)(O)O)C(C)(C)[C@@H]5CC[C@]43C)[C@@H]12` [BETULIN DIPHOSPHATE], for which the HC50 in data set [1] is > 800 µM. In addition, the IC50 in data set [2] amounted to 42.6 µM.
With `C=C(C)[C@@H]1CC[C@]2(COS(=O)(=O)O)CC[C@]3(C)[C@H](CC[C@@H]4[C@@]5(C)CC[C@H](OS(=O)(=O)O)C(C)(C)[C@@H]5CC[C@]43C)[C@@H]12` [BETULIN DISULFATE], the IC50 in data set [3] worked out at 414 µM; in data set [4], 14.6 µM; in data set [2] it was 6.9 µM. For the same compound, the HC50 in data set [1] turned out to be 850 µM. Also, the Ki in data set [5] came out at 8.6 µM; in data set [6] it was 42.2 µM.
`C=C(C)[C@@H]1CC[C@]2(C(=O)O)CC[C@]3(C)[C@H](CC[C@@H]4[C@@]5(C)CC[C@H](OS(=O)(=O)O)C(C)(C)[C@@H]5CC[C@]43C)[C@@H]12` [BETULINIC ACID SULFATE]: the IC50 stood at 640 µM in data set [3], 53.8 µM in data set [4] and 9.9 µM in data set [2]. For the same compound, the HC50 in data set [1] is > 900 µM. Also, the Ki in data set [5] came out at 14.6 µM; in data set [6], 57.3 µM.
With `C[C@H](CCC(=O)O)[C@H]1CC[C@H]2[C@@H]3[C@H](OS(=O)(=O)O)C[C@@H]4C[C@H](OS(=O)(=O)O)CC[C@]4(C)[C@H]3C[C@H](OS(=O)(=O)O)[C@]12C` [CHOLIC ACID TRISULFATE], the HC50 in data set [1] is > 1400 µM. For the same compound, in data set [2], the half-inhibitory concentration (IC50) stood at 101 µM.
For `C[C@H](CCC(=O)O)[C@H]1CC[C@H]2[C@@H]3CC[C@@H]4C[C@H](OS(=O)(=O)O)CC[C@]4(C)[C@H]3C[C@H](OS(=O)(=O)O)[C@]12C` [DEOXYCHOLIC ACID DISULFATE], in that order: > 1600 µM and 186 µM.
Consider `CC1(C)CC[C@]2(C(=O)O)CC[C@]3(C)C(=CCC4[C@@]5(C)CC[C@H](OS(=O)(=O)O)C(C)(C)[C@@H]5CC[C@]43C)[C@@H]2C1` (some centres not stated) [OLEANOLIC ACID SULFATE], for which, in data set [1], the HC50 came out at 15 µM.
As to `C[C@H]1[C@H](C)CC[C@]2(C(=O)O)CC[C@]3(C)C(=CC[C@@H]4[C@@]5(C)CC[C@H](OS(=O)(=O)O)C(C)(C)[C@@H]5CC[C@]43C)[C@H]12` [URSOLIC ACID SULFATE], the HC50 in data set [1] is > 900 µM. Also, the half-inhibitory concentration (IC50) in data set [2] came out at 25.2 µM.
